Measured values from US12551465B2 (priority 2020, dated 2026).
Where two headings read alike, the source gives them in different places. Marks after values point to notes of the source that are not given here.

Key:
[1] = not given; remark: listed apart in the source
patients with HOCM [2] = settings: Cohort 1 of Example 3, 200 mg once a day for 5 days
Source text: (§1) A total of up to 24 subjects were enrolled in 3 cohorts (8 per cohort). The subjects underwent at least one set of screening, hospital stay, and the end of study (EOS). Based on (1) safety data reviewed by the Safety Review Committee (SRC) and (2) consent to participate, subjects who underwent EOS in one cohort study could participate in another subsequent cohort study after a washout period of at least 7 days after they received the last investigational medicinal product on day 5 of the previous cohort study.
(§2) If subjects participated in another cohort study of Cohort 1 or 2, screening and inclusion/exclusion criteria were re-evaluated after the washout period. […] All subjects in each cohort were reviewed for safety data by the Safety Review Committee (SRC) after EOS before enrollment in the next dose cohort. The maximum duration of the clinical trial was over 15 weeks, including 9 weeks of screening, approximately 3 weeks of hospital stay and 3 weeks of EOS.

patients with HOCM [3] = settings: for Mean LVOT gradient at rest, actual measured value / Mean LVOT gradient at rest, decrease rate / Mean LVOT gradient with Valsalva maneuver, actual measured value / Mean LVOT gradient with Valsalva maneuver, decrease rate: drug (6) and placebo (2)
Source text: Echocardiography (heart scanning): In a state in which the patient is lying flat, a transducer is placed on the chest of the patient, and high-frequency sound waves (sound waves higher than those that humans can hear) are delivered into the body towards the heart. As the sound wave passes through other parts of the body, a part of the wave bounces back to the transducer, and the image of the heart and blood flow is interpreted by the ultrasound machine. This is to examine the heart's ability to eject blood, as well as heart abnormalities, including the atria, valves and major blood vessels.
as §1, §2
In the case of once-a-day administration, the test drug was administered in the morning of each administration day. In the case of twice-a-day administration, the test drug was administered at 12-hour intervals (in the morning and in the evening) on from day 1 to day 4 and administered only in the morning on day 5.
Subjects who meet the following criteria are considered eligible to participate in the clinical trial: • patients with a maximal left ventricular wall thickness of 15 mm or more (13 mm or more for patients with a family history); • patients with a left ventricular outflow tract (LVOT) gradient of 30 mmHg or more at rest, or an LVOT gradient of 50 mmHg or more after provocation (including provocation such as Valsalva maneuver, standing, post-exercise, etc.); or • patients with a left ventricular ejection fraction (LVEF) of 55% or more. Exclusion Criteria
Secondary assessment variables were pharmacokinetics including Cmax, and the left ventricular outflow track (LVOT) gradient and left ventricular ejection fraction (LVEF) by transthoracic echocardiography (TTE), as wells as blood B-natriuretic peptide (BNP) and troponin levels.
In Example 3 above, the left ventricular outflow track (LVOT) gradient), which is an effect indicator, was measured on day 5 of administration.

healthy volunteers [4] = assay: Electrocardiogram (QTcF, QRS) after repeated dose in healthy volunteers (Example 2)
Method: (§3) The electrocardiogram is checked after resting in a supine position in a quiet environment (e.g., without distracting factors) for at least 5 minutes. A sticky pad is attached to the body, and the pad has a thin wire connected to a machine that records measurements of the heart and prints a report. Each time an electrocardiogram is performed, the clinical trial staff performs three electrocardiogram recordings. The time between ECG recordings should not exceed 2 minutes, and the total time should not exceed 10 minutes.
(§4) Primary assessment variables were safety, tolerability and side effects, and the clinical test items were 12-electrode electrocardiogram (including corrected QT interval (calculated by Fridericia formula) [QTc(F)]), QT interval, QRS interval, PR interval, and ventricular rate), vital signs (blood pressure, pulse, body temperature, respiration rate), hypersensitivity (determined by ECG recording and vital signs), clinical laboratory assessment (hematology, blood chemistry, urinalysis, etc.), and adverse events (including serious adverse events).
For participants in Cohort 4, electrocardiogram, pharmacodynamic assessment (echocardiography), etc. were performed on one day before administration, the day of administration (day 1), one day after administration (day 2), day 5 and day 6.
For participants in Cohort 5, electrocardiogram, pharmacodynamic assessment (echocardiography), etc. were performed on one day before administration, the day of administration (day 1), and day 5, day 14 and day 15.
For participants in Cohort 6, electrocardiogram, pharmacodynamic assessment (echocardiography), etc. were performed on one day before administration, the day of administration (day 1), and day 5 and day 14.

healthy volunteers [5] = assay: Electrocardiogram (QTcF, QRS) after single dose in healthy volunteers (Example 1)
Method: as §3
(§5) Primary assessment variables were safety, tolerability and side effects, and the clinical trial items were 12-electrode electrocardiogram (including corrected QT interval (calculated by Fridericia formula) [QTc(F)]), QT interval, QRS interval, PR interval, and ventricular rate), vital signs (blood pressure, pulse, body temperature, respiration rate), hypersensitivity (determined by ECG recording and vital signs), clinical laboratory assessment (hematology, blood chemistry, urinalysis, etc.), and adverse events (including serious adverse events).
For participants in Cohorts 1 to 3, electrocardiogram, pharmacodynamic assessment (echocardiography), etc. were performed on one day before administration, the day of administration (day 1), and for two days after administration (48 hours, day 2 and day 3).

healthy volunteers [6] = assay: Clinical safety and tolerability, single dose, healthy volunteers (Example 1)
Source text: (§6) In this study, a total of 24 subjects were randomized 1:1:1 to three cohorts and subjected to a total of four stages: screening, treatment period 1, drug withdrawal period, and treatment period 2. The ratio between the drug administration group and the non-drug-administration group (placebo) was 6:2.
as §5

healthy volunteers [7] = assay: Clinical safety and tolerability, repeated dose, healthy volunteers (Example 2)
Source text: as §6, §4

[8] = Cohort 6 (control): 150 mg oral three times a day for 14 days, PK on day 14
[9] = Cohort 6: racemate 150 mg three times a day for 14 days, day 14, only S(−)-cibenzoline moiety
[10] = Cohort 3 (control): 150 mg oral three times a day, healthy volunteers
[11] = Cohort 3: racemate 150 mg oral three times a day, only S(−)-cibenzoline moiety
[12] = HOCM Cohort 1, 200 mg once a day, before administration (day 5), before unblinding: drug (6) and placebo (2)
[13] = HOCM Cohort 1, 200 mg once a day, day 5, 2.5 hours after administration
[14] = HOCM Cohort 1, 200 mg once a day, day 5, 6 hours after administration
[15] = Cohort 4, 200 mg once a day, Day 5, 1.5 hr after administration
[16] = Cohort 4, 200 mg once a day, Day 5, 3 hr after administration
[17] = Cohort 4, 200 mg once a day, Day 5, 8 hr after administration
[18] = Cohort 4, 200 mg once a day, Day 5 before administration
[19] = Cohort 5, 300 mg once a day, Day 14, 1.5 hr after administration
[20] = Cohort 5, 300 mg once a day, Day 14, 3 hr after administration
[21] = Cohort 5, 300 mg once a day, Day 14, 8 hr after administration
[22] = Cohort 5, 300 mg once a day, Day 14 before administration
[23] = Cohort 1, 200 mg single dose, Day 1, 1.5 hr after administration
[24] = Cohort 1, 200 mg single dose, Day 1, 3 hr after administration
[25] = Cohort 1, 200 mg single dose, Day 1, 8 hr after administration
[26] = Cohort 1, 200 mg single dose, Day 1 before administration (baseline)
[27] = Cohort 2, 300 mg single dose, Day 1, 1.5 hr after administration
[28] = Cohort 2, 300 mg single dose, Day 1, 3 hr after administration
[29] = Cohort 2, 300 mg single dose, Day 1, 8 hr after administration
[30] = Cohort 2, 300 mg single dose, Day 1 before administration (baseline)

Q: What does the source list for O=C(O)CCC(=O)O.c1ccc(C2(c3ccccc3)CC2C2=NCCN2)cc1 (racemic) [racemic cibenzoline succinate]?
A: Cmax [8]: 608.1 ng/mL; Tmax [8]: 1.3 h; AUC (extract of only S(−)-cibenzoline moiety) (Cohort 6, day 14, only S(−)-cibenzoline moiety, simulation: 8-hour PK data multiplied by 3): (4732.2)* ng · hr/mL; AUC (Cohort 6: 150 mg three times a day for 14 days, simulation: 8-hour day 14 PK data multiplied by 3): 8876.4* ng · hr/mL; Cmax (extract of only S(−)-cibenzoline moiety) [9]: (334.2) ng/mL; Tmax (extract of only S(−)-cibenzoline moiety) [9]: (1.0) h; AUC [1, 10]: 7540.4 ng·h/mL; Cmax [1, 10]: 367.4 ng/mL; Tmax [1, 10]: 1.7 h; AUC (extract of only S(−)-cibenzoline moiety) [1, 11]: (3610.3) ng · hr/mL; Cmax (extract of only S(−)-cibenzoline moiety) [1, 11]: (193.2) ng/mL; Tmax (extract of only S(−)-cibenzoline moiety) [1, 11]: (1.7) h

Q: For c1ccc(C2(c3ccccc3)C[C@@H]2C2=NCCN2)cc1 [S(−)-cibenzoline succinate], which drug-related adverse event (patients with HOCM [2]) is on record?
A: Its drug-related adverse event is “no drug-related adverse event occurred”.

Q: And the “Mean LVOT gradient at rest” value (patients with HOCM [3]; [12])?
A: Its value is 90.18 mmHg.

Q: What about the “Mean LVOT gradient with Valsalva maneuver” value (patients with HOCM [3]; [12]) of the same compound?
A: The value was 128.50 mmHg.

Q: What about the “Mean LVOT gradient at rest, actual measured value” (patients with HOCM [3]; [13]) of the same compound?
A: The value was 77.09 mmHg.

Q: And the “Mean LVOT gradient at rest, decrease rate” value (patients with HOCM [3]; [13])?
A: The value was 15%.

Q: And the “Mean LVOT gradient with Valsalva maneuver, actual measured value” (patients with HOCM [3]; [13])?
A: The value was 98.22 mmHg.

Q: What about the “Mean LVOT gradient with Valsalva maneuver, decrease rate” value (patients with HOCM [3]; [13]) of the same compound?
A: Its value is 24%.

Q: What about the “Mean LVOT gradient at rest, actual measured value” (patients with HOCM [3]; [14]) of the same compound?
A: The value was 88.07 mmHg.

Q: And the “Mean LVOT gradient at rest, decrease rate” value (patients with HOCM [3]; [14])?
A: The value was 2%.

Q: And the “Mean LVOT gradient with Valsalva maneuver, actual measured value” (patients with HOCM [3]; [14])?
A: Its value is 126.52 mmHg.

Q: And the “Mean LVOT gradient with Valsalva maneuver, decrease rate” value (patients with HOCM [3]; [14])?
A: Its value is 2%.

Q: What about the QRS (healthy volunteers [4]; [15]) of the same compound?
A: Its QRS is 100 ms.

Q: What about the QTcF (healthy volunteers [4]; [15]) of the same compound?
A: The QTcF was 417 ms.

Q: And the QRS (healthy volunteers [4]; [16])?
A: The QRS was 102 ms.

Q: What about the QTcF (healthy volunteers [4]; [16]) of the same compound?
A: Its QTcF is 433 ms.

Q: What about the QRS (healthy volunteers [4]; [17]) of the same compound?
A: The QRS was 96 ms.

Q: And the QTcF (healthy volunteers [4]; [17])?
A: The QTcF was 417 ms.

Q: And the QRS (healthy volunteers [4]; [18])?
A: Its QRS is 92 ms.

Q: And the QTcF (healthy volunteers [4]; [18])?
A: Its QTcF is 399 ms.

Q: What about the QRS (healthy volunteers [4]; [19]) of the same compound?
A: The QRS was 124 ms.

Q: What about the QTcF (healthy volunteers [4]; [19]) of the same compound?
A: The QTcF was 435 ms.

Q: And the QRS (healthy volunteers [4]; [20])?
A: The QRS was 130 ms.

Q: What about the QTcF (healthy volunteers [4]; [20]) of the same compound?
A: The QTcF was 444 ms.

Q: And the QRS (healthy volunteers [4]; [21])?
A: Its QRS is 110 ms.

Q: And the QTcF (healthy volunteers [4]; [21])?
A: Its QTcF is 427 ms.

Q: And the QRS (healthy volunteers [4]; [22])?
A: The QRS was 106 ms.

Q: What about the QTcF (healthy volunteers [4]; [22]) of the same compound?
A: Its QTcF is 404 ms.

Q: What about the QRS (healthy volunteers [5]; [23]) of the same compound?
A: The QRS was 102 ms.

Q: And the QTcF (healthy volunteers [5]; [23])?
A: The QTcF was 412 ms.

Q: And the QRS (healthy volunteers [5]; [24])?
A: Its QRS is 107 ms.

Q: And the QTcF (healthy volunteers [5]; [24])?
A: Its QTcF is 426 ms.

Q: And the QRS (healthy volunteers [5]; [25])?
A: Its QRS is 99 ms.

Q: And the QTcF (healthy volunteers [5]; [25])?
A: Its QTcF is 408 ms.

Q: What about the QRS (healthy volunteers [5]; [26]) of the same compound?
A: The QRS was 92 ms.

Q: And the QTcF (healthy volunteers [5]; [26])?
A: The QTcF was 406 ms.

Q: And the QRS (healthy volunteers [5]; [27])?
A: Its QRS is 107 ms.

Q: What about the QTcF (healthy volunteers [5]; [27]) of the same compound?
A: Its QTcF is 419 ms.

Q: What about the QRS (healthy volunteers [5]; [28]) of the same compound?
A: The QRS was 116 ms.

Q: What about the QTcF (healthy volunteers [5]; [28]) of the same compound?
A: The QTcF was 429 ms.

Q: And the QRS (healthy volunteers [5]; [29])?
A: Its QRS is 107 ms.

Q: And the QTcF (healthy volunteers [5]; [29])?
A: Its QTcF is 415 ms.

Q: What about the QRS (healthy volunteers [5]; [30]) of the same compound?
A: The QRS was 101 ms.

Q: What about the QTcF (healthy volunteers [5]; [30]) of the same compound?
A: Its QTcF is 411 ms.

Q: Which safety and tolerability (healthy volunteers [6]; 200 mg or 300 mg once a day, single dose, healthy volunteers) does the source give for c1ccc(C2(c3ccccc3)C[C@@H]2C2=NCCN2)cc1 [S(−)-cibenzoline, S-2-(2,2-diphenylcyclopropyl)-4,5-dihydro-1H-imidazole] here?
A: Its safety and tolerability is “safe and tolerable”.

Q: And the serious side effects (healthy volunteers [6]; Cohorts 1 and 2 (200 mg or 300 mg once a day, single dose) compared to Cohort 3, healthy volunteers)?
A: The serious side effects was “no serious side effects occurred”.

Q: And the “decrease of left ventricular outflow tract (LVOT) gradient after drug administration” value (patients with HOCM [3]; HOCM patients, Example 3)?
A: Its value is “about 10 mmHg”.

Q: What about the safety and tolerability (healthy volunteers [7]; 200 mg or 300 mg once a day, repeated dose, healthy volunteers) of the same compound?
A: The safety and tolerability was “safe and tolerable”.

Q: And the serious side effects (healthy volunteers [7]; Cohorts 4 and 5 (200 mg once a day 5 days; 300 mg once a day 14 days) compared to Cohort 6)?
A: Its serious side effects is “serious side effects did not occur”.
